Data from patent publication US4959482A, “Pyrrolidinone compounds and pharamaceutical compositions containing same” (Biofor, Ltd., priority 1988, dated 1990).

Key:
[1] = U.S. Pat. No. 4,357,345; cited from earlier work
[2] = Khimiya Geterotsiklicheskikh Soedinenii, Vol. 12: 1660-1664 (1971); cited from earlier work
yeast-induced fever = experiment: Antipyretic Evaluation (yeast-induced fever in rats); assay type: in vivo, male Sprague-Dawley rats; settings: 300 mg/kg, oral by gavage nineteen hours after yeast injection
Protocol: Antipyretic: This activity was evaluated by creating a yeast-induced fever in rats according to a modified method of the procedure described by Loux et al in "Toxicology and Applied Pharmacology", Vol. 22: page 672 (1972). In this assay rats injected with yeast in distilled water were dosed with test compounds, aspirin (positive control) and a vehicle (negative control) and the observed differences in body temperature were analyzed statistically.
Antipyretic activity was evaluated using a modification of the test described by Loux et al, in Toxicology and Applied Pharmacology, 22:672 (1972), that is, yeast-induced fever in rats. Each test group consisted of ten male Sprague-Dawley rats (Charles River Laboratories), weighing 180-225 grams each. Eighteen hours prior to compound administration the rats were weighed and body temperatures were recorded. Food was removed with water available ad libitum. […]
Test compounds suspended in 0.25% methylcellulose (0.25% MC) or olive oil were administered orally by gavage nineteen hours following the yeast injection. Body temperatures were taken and recorded one hour after compound administration. […] The mean temperature of the compound-treated groups, positive control group (Aspirin) and negative control group (vehicle) were calculated at 18 hours and 20 hours. The data was analyzed statistically using a paired-samples Student's t-Test.

[3] = system: Adjuvant arthritis (hind paw edema); experiment: Adjuvant Arthritis Assay; Developing; assay type: in vivo, female Lewis rats; settings: Rattus norvegicus, 96 h, dosed once daily for 4 days in 0.25% methylcellulose, inhibition of hind paw edema on fifth day
Protocol: Anti-Inflammatory: This activity was evaluated via a modification of the Adjuvant Arthritis Assay (AA) described by S. […] This assay measures the ability of the test compound to antagonize local edema, a characteristic of the inflammatory response. […] The left and right rear paws of female Lewis rats (Charles River Laboratories) weighing 160-180 grams each were measured by mercury displacement prior to injection (Day Zero). Adjuvant arthritis was induced in this rat colony by subcutaneous injection of Mycobacterium butyricum (0.75 mg in 0.1 ml light mineral oil, Fisher) using an automated Cornwall syringe. On days 11-15 post-adjuvant the injected animals with 0.25 to 0.75 ml. paw edema were selected and distributed evenly, according to edema size, into control and experimental groups of ten rats each. Vehicle control and drug treatments were assigned to the groups at random. The assay was performed using a variable dose level for each test compound per kilogram per day in 0.25% methylcellulose vehicle. All animals were dosed once daily for 4 days and on the fifth day both hind paw volumes were again measured using mercury displacement. The hind paw edema was determined for each rat by subtracting the hind paw volume measured on Day Zero from the hind paw volume measured on the fifth day of the study. Group means were determined and the drug effect was calculate as percent inhibition of the hind paw edema according to the following equation: [formula] […] The known anti-inflammatory NAPROXEN was also tested for comparison purposes.

LD50 (acute toxicity) = settings: rat, in vivo; printed after the oral four-day ulcerogenicity study in female Lewis rats
[4] = system: Adjuvant arthritis (hind paw edema); experiment: Adjuvant Arthritis Assay; Immunomodulatory; assay type: in vivo, Lewis female rats; settings: 50 mg/kg, oral, Day 5 to 9; paw edema on Day 15
Protocol: Immunomodulatory: This activity was determined by using a Modified Adjuvant Assay procedure in which female rats were injected with Mycobacterium butyricum to induce hind paw edema. The test compounds were administered orally and the difference in volume between dosed and non-dosed paws was determined.
Lewis female rats were injected in the tail subcutaneously with Mycobacterium butyricum (0.75 mg in 0.1 ml light mineral oil, Fisher) on Day Zero. Prior to injection the volumes of the left and right rear paws were measured by mercury displacement. All rats were dosed orally with vehicle or test compounds on Day 5 to 9 inclusive. The volume of both hind paws were determined on Day 15 and the percent inhibitions were calculated based upon average edema on Day 15 relative to the edema mean in the control group.

[5] = system: acetylcholine-induced writhing; experiment: Acetylcholine Writhing Assay; assay type: in vivo, male CD-1 mice; settings: Mus musculus, 0.75 h; oral by gavage, 45 minutes before intraperitoneal acetylcholine; writhes counted for 10 minutes
Protocol: Analgesic: The "Acetylcholine Writhing Assay" (ACH) of Collier et al [Nature; Vol. 204: page 1316 (1964)]was employed. In this study the test compounds were administered orally to mice and 45 minutes later the mice were injected with acetylcholine. The frequency of writhing was counted in each animal and the response elicited in the drug-treated mice was compared with the response of those given acetylcholine alone.
Analgesic activity was evaluated via the mouse acetylcholine writing test using a modification of the procedure described by Collier, et al in Nature (New Biol.) Vol. 204; page 1316 (1964) and Br. J. Pharmacol, Chemother, Vol. 32: page 295 (1968). Each test group consisted of ten male CD-1 mice (Charles River Laboratories) weighing 18-28 grams each. Test compounds suspended in a mixture of 0.25% methylcellulose solution in […] were administered orally by gavage and forty five minutes later the mice were injected intraperitoneally with acetylcholine (0.55 mg/ml in 0.25% methylcellulose). The number of writhes in each group of mice were counted for 10 minutes immediately following the injection of acetylcholine and the percent inhibition was calculated as follows: [formula] Four dose levels were used to calculate the ED50 of the test compound.

[6] = system: Adjuvant arthritis (paw edema); experiment: Adjuvant Arthritis Assay; Established; assay type: in vivo, rats; settings: Rattus norvegicus, 552 h; oral, once daily on days 19-22 post adjuvant; paw volume on day 23
Protocol: In this assay the differences between dosed and non-dosed paw values were determined postadjuvant. […] On day 19 post adjuvant all rats were evenly distributed according to edema size. Doses of treatment or vehicle were administered orally to all rats once daily on days 19-22 inclusive. Final paw volumes were determined on day 23 post adjuvant.

CC(C)(C)c1cc(S(=O)(=O)c2ccccc2)cc(C(C)(C)C)c1O [2,6-di-(tert-butyl)-4-(phenylsulfonyl)phenol]
anti-inflammatory activity [1]: absence of anti-inflammatory activity

CC(C)(C)c1cccc(C(C)(C)C)c1O [2,6-di-(tert-butyl)phenol]
anti-inflammatory activity [1]: absence of anti-inflammatory activity

CC(C)(C)c1cc(C=Cc2ccccn2)cc(C(C)(C)C)c1O [2-[2-(3',5'-di-tert-butyl-4'-hydroxyphenyl)ethenyl]pyridine]
effectiveness in the treatment of tumors [2]: effective in the treatment of tumors

Cc1cc(C(C)(C)C)c(O)c(C(C)(C)C)c1 [3,5-di(tert-butyl)-4-hydroxytoluene]
anti-inflammatory activity [1]: little or no value as an anti-inflammatory agent

CC(C)(C)c1cc(C(=O)c2ccccc2Cl)cc(C(C)(C)C)c1O [4-(2-chlorobenzoyl)-2,6-di-(tert-butyl)phenol]
anti-inflammatory activity [1]: absence of anti-inflammatory activity

CC(C)(C)c1cc(C(=O)c2cc(C(=O)O)ccc2Cl)cc(C(C)(C)C)c1O [4-(5-carboxy-2-chlorobenzoyl)-2,6-di-(tert-butyl)phenol]
anti-inflammatory activity [1]: absence of anti-inflammatory activity

CC(C)(C)c1cc(C=Cc2ccncc2)cc(C(C)(C)C)c1O [4-[2-(3',5'-di-tert-butyl-4'-hydroxyphenyl)ethenyl]pyridine]
effectiveness in the treatment of tumors [2]: effective in the treatment of tumors

CC(=O)c1cc(C(C)(C)C)c(O)c(C(C)(C)C)c1 [4-acetyl-2,6-(di-tert-butyl)phenol]
anti-inflammatory activity [1]: absence of anti-inflammatory activity

CC(C)(C)c1cc(C(N)=O)cc(C(C)(C)C)c1O [4-carboxamido-2,6-di-(tert-butyl)phenol]
anti-inflammatory activity [1]: absence of anti-inflammatory activity

CCCCCCCCc1cc(C(C)(C)C)c(O)c(C(C)(C)C)c1 [4-n-octyl-2,6-di-(tert-butyl)phenol]
anti-inflammatory activity [1]: absence of anti-inflammatory activity

CC(=O)Oc1ccccc1C(=O)O [Aspirin]
Change in Temperature, 18-20 Hour Period (yeast-induced fever): -2.05 °C

CC(C)(C)c1cc(N2CCCC2=O)cc(C(C)(C)C)c1O [Example 1, 1-(3,5-Di-tert-Butyl-4-Hydroxyphenyl)Pyrrolidin-2-One]
ED50 [3]: 21 mg/kg
LD50 (LD50 (acute toxicity)): > 1000 mg/kg
% Inhibition (Adjuvant Arthritis Data-Immunomodulatory) [4]: 39%
ED50 [5]: 13 mg/kg
ED50 [6]: 36 mg/kg

CC(C)(C)c1cc(N2CCCCC2=O)cc(C(C)(C)C)c1O [Example 2, 1-(3,5-Di-tert-Butyl-4-Hydroxyphenyl)Piperidin-2-One]
ED50 [3]: 34 mg/kg

COc1ccc2cc([C@H](C)C(=O)O)ccc2c1 [NAPROXEN]
ED50 [3]: 28 mg/kg
ED50 [5]: 6.2 mg/kg
ED50 [6]: 28 mg/kg
